Data from ChEMBL document CHEMBL3734721 (J Med Chem, 2015).

Key:
[1] = molecular target: 5-hydroxytryptamine receptor 1A (Homo sapiens, UniProt P08908); test: Antagonist activity at human 5-HT1A receptor expressed in CHO-K1 cells assessed as seretonin-induced cAMP level by HTRF assay; format: functional, cell-based
[2] = molecular target: 5-hydroxytryptamine receptor 2A (Homo sapiens, UniProt P28223); test: Antagonist activity at human 5-HT2A receptor expressed in CHO-K1 cells assessed as seretonin-induced calcium level by FDSS assay; format: functional, cell-based
[3] = molecular target: 5-hydroxytryptamine receptor 2B (Homo sapiens, UniProt P41595); test: Antagonist activity at human 5-HT2B receptor expressed in CHO-K1 cells assessed as seretonin-induced calcium level by FDSS assay; format: functional, cell-based
5-hydroxytryptamine receptor 2B, sequence (P41595 whole entry): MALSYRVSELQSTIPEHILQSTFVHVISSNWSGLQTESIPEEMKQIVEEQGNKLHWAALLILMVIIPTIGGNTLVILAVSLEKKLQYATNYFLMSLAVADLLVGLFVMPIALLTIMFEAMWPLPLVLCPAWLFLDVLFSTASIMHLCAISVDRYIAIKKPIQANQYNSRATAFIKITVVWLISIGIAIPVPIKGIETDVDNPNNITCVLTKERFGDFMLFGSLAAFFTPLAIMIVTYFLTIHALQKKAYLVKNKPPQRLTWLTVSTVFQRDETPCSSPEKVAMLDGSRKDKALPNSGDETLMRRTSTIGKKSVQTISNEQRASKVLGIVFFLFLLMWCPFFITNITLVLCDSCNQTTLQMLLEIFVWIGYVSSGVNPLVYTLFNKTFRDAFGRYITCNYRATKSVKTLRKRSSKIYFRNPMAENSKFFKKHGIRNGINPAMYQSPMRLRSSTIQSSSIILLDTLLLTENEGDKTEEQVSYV

[4] = molecular target: 5-hydroxytryptamine receptor 7 (Homo sapiens, UniProt P34969); test: Antagonist activity at human wild-type 5-HT7 receptor expressed in HEK cells assessed as seretonin-induced cAMP by HTRF assay; format: functional, cell-based, HEK293
5-hydroxytryptamine receptor 7, sequence (P34969 whole entry): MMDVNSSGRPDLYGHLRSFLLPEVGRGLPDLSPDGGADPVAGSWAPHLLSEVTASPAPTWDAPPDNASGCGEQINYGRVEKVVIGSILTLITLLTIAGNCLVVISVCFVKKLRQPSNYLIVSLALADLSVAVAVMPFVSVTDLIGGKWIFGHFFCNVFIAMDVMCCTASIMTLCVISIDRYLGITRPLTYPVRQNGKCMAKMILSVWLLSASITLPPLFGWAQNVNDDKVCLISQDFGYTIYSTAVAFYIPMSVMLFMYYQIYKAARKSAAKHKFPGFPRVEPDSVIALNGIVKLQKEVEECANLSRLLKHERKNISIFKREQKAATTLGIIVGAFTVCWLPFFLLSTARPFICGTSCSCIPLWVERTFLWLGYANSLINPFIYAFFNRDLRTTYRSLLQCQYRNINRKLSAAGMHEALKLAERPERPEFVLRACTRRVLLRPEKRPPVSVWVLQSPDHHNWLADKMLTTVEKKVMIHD

Adenosine receptor A2a = Adenosine receptor A2a (Homo sapiens, UniProt P29274); test: Antagonist activity at human wild-type A2A receptor expressed in CHO-K1 cells assessed as NECA-induced cAMP by HTRF assay; format: functional, cell-based
Adenosine receptor A2a, sequence (P29274 whole entry): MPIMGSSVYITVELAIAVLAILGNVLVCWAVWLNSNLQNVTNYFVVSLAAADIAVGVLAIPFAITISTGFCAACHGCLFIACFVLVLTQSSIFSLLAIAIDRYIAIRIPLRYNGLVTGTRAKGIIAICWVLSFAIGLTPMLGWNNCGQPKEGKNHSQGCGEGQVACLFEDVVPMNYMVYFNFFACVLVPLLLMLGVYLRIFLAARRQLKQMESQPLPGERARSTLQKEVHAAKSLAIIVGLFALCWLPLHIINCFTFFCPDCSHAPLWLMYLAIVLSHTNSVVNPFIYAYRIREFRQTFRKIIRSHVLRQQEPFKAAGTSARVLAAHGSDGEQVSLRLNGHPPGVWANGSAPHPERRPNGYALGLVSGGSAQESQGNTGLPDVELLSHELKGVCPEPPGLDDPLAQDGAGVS

[5] = molecular target: T1, Alpha-2C adrenergic receptor (Homo sapiens, UniProt P18825); test: Antagonist activity at human wild-type alpha 2C receptor expressed in CHO-K1 cells assessed as epinephrine-induced cAMP by HTRF assay; format: functional, cell-based
T1 sequence (P18825 whole entry): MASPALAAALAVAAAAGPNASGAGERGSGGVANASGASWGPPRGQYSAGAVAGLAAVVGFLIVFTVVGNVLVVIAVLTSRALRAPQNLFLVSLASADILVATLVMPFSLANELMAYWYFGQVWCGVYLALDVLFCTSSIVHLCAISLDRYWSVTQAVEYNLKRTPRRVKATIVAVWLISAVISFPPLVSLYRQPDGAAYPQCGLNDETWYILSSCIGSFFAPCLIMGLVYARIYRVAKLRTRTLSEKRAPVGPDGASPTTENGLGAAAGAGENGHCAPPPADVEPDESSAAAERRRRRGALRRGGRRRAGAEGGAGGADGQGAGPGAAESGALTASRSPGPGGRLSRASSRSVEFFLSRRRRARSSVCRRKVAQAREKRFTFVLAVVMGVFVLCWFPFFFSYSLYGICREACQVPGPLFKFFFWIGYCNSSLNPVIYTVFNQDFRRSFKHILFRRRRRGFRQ

[6] = molecular target: T2, Muscarinic acetylcholine receptor M1 (Homo sapiens, UniProt P11229); test: Antagonist activity at human wild-type M1 receptor expressed in CHO-K1 cells assessed as acetylcholine-induced calcium by FDSS assay; format: functional, cell-based
T2 sequence (P11229 whole entry): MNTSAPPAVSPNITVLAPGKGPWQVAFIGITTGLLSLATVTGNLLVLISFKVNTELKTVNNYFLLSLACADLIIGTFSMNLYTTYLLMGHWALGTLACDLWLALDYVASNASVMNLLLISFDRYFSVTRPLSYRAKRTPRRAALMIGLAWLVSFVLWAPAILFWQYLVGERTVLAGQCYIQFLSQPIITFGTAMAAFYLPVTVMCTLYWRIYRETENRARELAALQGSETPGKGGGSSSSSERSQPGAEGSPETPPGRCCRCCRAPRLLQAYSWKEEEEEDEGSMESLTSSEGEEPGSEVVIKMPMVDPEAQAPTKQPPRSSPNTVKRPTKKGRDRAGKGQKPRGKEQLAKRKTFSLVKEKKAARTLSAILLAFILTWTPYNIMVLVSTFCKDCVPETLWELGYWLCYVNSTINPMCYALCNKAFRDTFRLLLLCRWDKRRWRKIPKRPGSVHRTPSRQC

D(1A) dopamine receptor = D(1A) dopamine receptor (Homo sapiens, UniProt P21728); test: Antagonist activity at human wild-type D1 receptor expressed in CHO cells assessed as dopamine-induced cAMP by HTRF assay; format: functional, cell-based
D(1A) dopamine receptor, sequence (P21728 whole entry): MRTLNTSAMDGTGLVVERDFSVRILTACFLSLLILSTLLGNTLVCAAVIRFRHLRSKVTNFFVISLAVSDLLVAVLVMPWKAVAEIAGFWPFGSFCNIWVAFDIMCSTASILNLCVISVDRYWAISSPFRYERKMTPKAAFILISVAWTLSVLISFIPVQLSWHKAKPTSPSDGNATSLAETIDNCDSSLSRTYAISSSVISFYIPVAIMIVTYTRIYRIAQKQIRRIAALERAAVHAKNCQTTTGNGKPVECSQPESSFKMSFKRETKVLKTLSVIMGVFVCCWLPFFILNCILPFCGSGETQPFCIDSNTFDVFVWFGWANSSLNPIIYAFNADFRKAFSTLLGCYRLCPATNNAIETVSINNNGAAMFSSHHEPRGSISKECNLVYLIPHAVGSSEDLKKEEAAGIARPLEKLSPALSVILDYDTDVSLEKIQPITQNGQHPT

D(2) dopamine receptor = D(2) dopamine receptor (Homo sapiens, UniProt P14416); test: Antagonist activity at human wild-type D2 receptor expressed in CHO-K1 cells assessed as dopamine-induced cAMP by HTRF assay; format: functional, cell-based
D(2) dopamine receptor, sequence (P14416 whole entry): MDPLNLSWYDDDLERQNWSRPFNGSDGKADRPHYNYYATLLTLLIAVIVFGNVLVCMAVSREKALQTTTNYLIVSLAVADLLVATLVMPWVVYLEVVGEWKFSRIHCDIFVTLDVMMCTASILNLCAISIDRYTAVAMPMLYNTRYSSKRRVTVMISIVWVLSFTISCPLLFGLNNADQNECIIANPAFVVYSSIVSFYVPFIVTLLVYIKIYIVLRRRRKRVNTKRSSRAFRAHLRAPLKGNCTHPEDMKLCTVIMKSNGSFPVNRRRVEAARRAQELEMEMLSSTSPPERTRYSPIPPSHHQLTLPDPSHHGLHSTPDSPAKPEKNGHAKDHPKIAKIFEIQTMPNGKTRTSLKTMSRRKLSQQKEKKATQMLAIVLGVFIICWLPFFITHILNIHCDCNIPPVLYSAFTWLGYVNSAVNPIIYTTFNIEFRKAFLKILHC

[7] = molecular target: Kappa-type opioid receptor (Homo sapiens, UniProt P41145); test: Antagonist activity at human wild-type opioid-kappa 1 receptor expressed in CHO-K1 cells assessed as U50488-induced cAMP by HTRF assay; format: functional, cell-based
Kappa-type opioid receptor, sequence (P41145 whole entry): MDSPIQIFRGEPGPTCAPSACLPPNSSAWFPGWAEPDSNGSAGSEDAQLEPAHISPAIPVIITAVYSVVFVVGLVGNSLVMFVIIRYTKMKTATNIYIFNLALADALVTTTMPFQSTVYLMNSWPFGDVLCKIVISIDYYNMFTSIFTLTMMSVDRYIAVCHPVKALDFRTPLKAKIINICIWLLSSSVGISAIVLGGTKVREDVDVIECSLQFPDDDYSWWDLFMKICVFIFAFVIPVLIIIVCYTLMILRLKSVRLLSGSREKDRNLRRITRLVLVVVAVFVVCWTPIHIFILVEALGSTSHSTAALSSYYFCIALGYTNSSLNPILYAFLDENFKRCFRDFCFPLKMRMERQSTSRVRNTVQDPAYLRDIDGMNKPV

Adenosine receptor A3 = molecular target: T3, Adenosine receptor A3 (Homo sapiens, UniProt P0DMS8); test: Agonist activity at human wild-type A3 receptor expressed in CHO-K1 cells assessed as cAMP level by HTRF assay; format: functional, cell-based
T3 sequence (P0DMS8 whole entry): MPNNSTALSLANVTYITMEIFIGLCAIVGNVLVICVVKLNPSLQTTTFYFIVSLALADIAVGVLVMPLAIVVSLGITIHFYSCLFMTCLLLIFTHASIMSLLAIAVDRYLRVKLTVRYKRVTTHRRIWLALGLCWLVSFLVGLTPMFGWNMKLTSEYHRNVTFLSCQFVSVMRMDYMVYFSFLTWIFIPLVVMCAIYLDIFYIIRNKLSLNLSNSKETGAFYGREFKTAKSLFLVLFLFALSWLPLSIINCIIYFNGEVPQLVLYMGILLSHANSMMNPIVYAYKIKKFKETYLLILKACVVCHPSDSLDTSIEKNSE

Vasopressin V1a receptor = Vasopressin V1a receptor (Homo sapiens, UniProt P37288); test: Agonist activity at human wild-type AVPR1A receptor expressed in CHO-K1 cells assessed as calcium level by FDSS assay; format: functional, cell-based
Vasopressin V1a receptor, sequence (P37288 whole entry): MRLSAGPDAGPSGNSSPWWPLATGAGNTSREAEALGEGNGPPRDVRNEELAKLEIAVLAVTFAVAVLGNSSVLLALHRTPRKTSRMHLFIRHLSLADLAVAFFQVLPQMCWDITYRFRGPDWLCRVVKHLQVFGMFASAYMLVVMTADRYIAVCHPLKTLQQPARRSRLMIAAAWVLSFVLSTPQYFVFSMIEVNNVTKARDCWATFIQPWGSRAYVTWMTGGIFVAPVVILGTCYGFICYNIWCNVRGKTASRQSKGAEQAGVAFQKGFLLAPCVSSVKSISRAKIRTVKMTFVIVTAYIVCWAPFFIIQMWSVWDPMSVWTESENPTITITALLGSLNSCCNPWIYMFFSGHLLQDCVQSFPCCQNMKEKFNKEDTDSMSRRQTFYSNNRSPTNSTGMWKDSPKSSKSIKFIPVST

Endothelin-1 receptor = molecular target: T4, Endothelin-1 receptor (Homo sapiens, UniProt P25101); test: Agonist activity at human wild-type ETA receptor expressed in CHO-K1 cells assessed as calcium level by HTRF assay; format: functional, cell-based
T4 sequence (P25101 whole entry): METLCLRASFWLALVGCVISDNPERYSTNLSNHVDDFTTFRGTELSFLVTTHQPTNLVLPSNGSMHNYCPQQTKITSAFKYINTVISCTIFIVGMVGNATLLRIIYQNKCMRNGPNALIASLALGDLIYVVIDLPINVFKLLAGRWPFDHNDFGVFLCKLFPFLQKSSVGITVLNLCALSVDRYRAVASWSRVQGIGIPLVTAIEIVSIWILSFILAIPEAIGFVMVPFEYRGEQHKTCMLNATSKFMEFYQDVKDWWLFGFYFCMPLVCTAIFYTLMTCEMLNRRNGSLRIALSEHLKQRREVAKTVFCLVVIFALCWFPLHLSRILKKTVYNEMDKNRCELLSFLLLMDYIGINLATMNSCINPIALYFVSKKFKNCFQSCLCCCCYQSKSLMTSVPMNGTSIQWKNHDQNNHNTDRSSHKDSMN

Mu-type opioid receptor = Mu-type opioid receptor (Homo sapiens, UniProt P35372); test: Agonist activity at human wild-type opioid-mu receptor expressed in CHO-K1 cells assessed as cAMP level by HTRF assay; format: functional, cell-based
Mu-type opioid receptor, sequence (P35372 whole entry): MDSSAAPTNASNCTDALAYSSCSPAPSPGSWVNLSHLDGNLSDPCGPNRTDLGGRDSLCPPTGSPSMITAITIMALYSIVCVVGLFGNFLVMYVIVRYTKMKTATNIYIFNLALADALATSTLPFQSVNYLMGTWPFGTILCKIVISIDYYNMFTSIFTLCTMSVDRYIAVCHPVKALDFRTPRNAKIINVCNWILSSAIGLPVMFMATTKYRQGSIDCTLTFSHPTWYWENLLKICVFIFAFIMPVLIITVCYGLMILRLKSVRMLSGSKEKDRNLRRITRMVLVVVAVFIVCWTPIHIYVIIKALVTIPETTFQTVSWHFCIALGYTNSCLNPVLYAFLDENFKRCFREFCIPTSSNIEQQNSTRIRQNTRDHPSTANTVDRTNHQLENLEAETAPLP

Cytochrome P450 3A4 = Cytochrome P450 3A4 (Homo sapiens, UniProt P08684); test: Inhibition of human CYP3A4 by LC-MS analysis; format: ADME
Cytochrome P450 3A4, sequence (P08684 whole entry): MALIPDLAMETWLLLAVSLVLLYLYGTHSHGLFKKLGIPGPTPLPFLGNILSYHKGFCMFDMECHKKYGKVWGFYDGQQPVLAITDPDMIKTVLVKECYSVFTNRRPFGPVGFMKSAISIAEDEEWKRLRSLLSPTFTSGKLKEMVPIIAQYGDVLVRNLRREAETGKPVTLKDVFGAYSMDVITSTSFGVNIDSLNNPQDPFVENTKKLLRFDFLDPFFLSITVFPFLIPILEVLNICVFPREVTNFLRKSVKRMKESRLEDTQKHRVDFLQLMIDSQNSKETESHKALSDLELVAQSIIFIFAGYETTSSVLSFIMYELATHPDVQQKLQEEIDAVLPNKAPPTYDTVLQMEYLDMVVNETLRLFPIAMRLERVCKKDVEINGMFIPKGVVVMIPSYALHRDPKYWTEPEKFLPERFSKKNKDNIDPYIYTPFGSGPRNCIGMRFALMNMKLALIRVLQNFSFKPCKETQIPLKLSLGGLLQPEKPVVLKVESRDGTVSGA

Cytochrome P450 2D6 = Cytochrome P450 2D6 (Homo sapiens, UniProt P10635); test: Inhibition of human CYP2D6 by LC-MS analysis; format: ADME
Cytochrome P450 2D6, sequence (P10635 whole entry): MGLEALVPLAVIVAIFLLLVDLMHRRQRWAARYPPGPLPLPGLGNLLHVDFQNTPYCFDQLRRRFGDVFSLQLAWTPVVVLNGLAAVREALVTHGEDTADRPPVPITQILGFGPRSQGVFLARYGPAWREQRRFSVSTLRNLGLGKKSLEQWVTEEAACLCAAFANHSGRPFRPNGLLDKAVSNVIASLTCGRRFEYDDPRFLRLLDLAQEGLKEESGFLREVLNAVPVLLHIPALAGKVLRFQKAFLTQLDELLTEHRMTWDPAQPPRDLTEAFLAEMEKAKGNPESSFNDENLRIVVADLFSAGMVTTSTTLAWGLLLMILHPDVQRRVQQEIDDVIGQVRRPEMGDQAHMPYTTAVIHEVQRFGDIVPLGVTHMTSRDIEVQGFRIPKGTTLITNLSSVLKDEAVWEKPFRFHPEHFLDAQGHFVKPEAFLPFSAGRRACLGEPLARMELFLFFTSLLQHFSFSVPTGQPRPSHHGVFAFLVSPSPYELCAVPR

Liver microsome = test: Metabolic stability in human liver microsomes assessed as GSH adduct formation at 40 uM for 1 hr by LC/MS analysis; format: ADME
[8] = Ratio of drug level in brain to plasma in Swiss mouse at 5 mg/kg, sc; format: ADME, organism-based; settings: read-out: BPR

5-hydroxytryptamine receptor 1A, sequence (P08908 whole entry): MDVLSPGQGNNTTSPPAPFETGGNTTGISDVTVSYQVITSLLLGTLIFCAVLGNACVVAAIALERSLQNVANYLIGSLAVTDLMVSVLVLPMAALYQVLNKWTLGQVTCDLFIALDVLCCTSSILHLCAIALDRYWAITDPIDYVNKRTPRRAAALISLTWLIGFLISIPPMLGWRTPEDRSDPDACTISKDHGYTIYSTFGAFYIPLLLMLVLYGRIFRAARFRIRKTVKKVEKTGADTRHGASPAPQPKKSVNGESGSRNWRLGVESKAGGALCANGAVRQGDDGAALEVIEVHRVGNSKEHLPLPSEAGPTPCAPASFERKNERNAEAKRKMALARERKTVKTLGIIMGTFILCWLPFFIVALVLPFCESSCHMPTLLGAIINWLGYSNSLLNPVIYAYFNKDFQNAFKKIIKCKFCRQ

## CB1C=Cc2cccc(OCC(O)CNC(C)C)c2N1 (stereo unspecified)
[1]
  IC50: > 5.01 µM
[2]
  IC50: > 5.01 µM
[3]
  IC50: > 5.01 µM
[4]
  IC50: > 5.01 µM
Adenosine receptor A2a
  IC50: > 5.01 µM
[5]
  IC50: > 5.01 µM
[6]
  IC50: > 5.01 µM
D(1A) dopamine receptor
  IC50: > 5.01 µM
D(2) dopamine receptor
  IC50: > 5.01 µM
[7]
  IC50: > 5.01 µM
Adenosine receptor A3
  EC50: > 5.01 µM
Vasopressin V1a receptor
  EC50: > 5.01 µM
Endothelin-1 receptor
  EC50: > 5.01 µM
Mu-type opioid receptor
  EC50: > 5.01 µM
Cytochrome P450 3A4
  IC50: > 10 µM
Cytochrome P450 2D6
  IC50: 0.398 µM
Liver microsome
  Stability: Stable
[8]
  Kp: 13

## CB1C=Cc2c(cccc2OCC(O)CN(C)C)N1 (stereo unspecified)
[1]
  IC50: 2 µM
[2]
  IC50: > 5.01 µM
[3]
  IC50: > 5.01 µM
[4]
  IC50: > 5.01 µM
Adenosine receptor A2a
  IC50: > 5.01 µM
[5]
  IC50: > 5.01 µM
[6]
  IC50: > 5.01 µM
D(1A) dopamine receptor
  IC50: > 5.01 µM
D(2) dopamine receptor
  IC50: > 5.01 µM
[7]
  IC50: > 5.01 µM
Adenosine receptor A3
  EC50: > 5.01 µM
Vasopressin V1a receptor
  EC50: > 5.01 µM
Endothelin-1 receptor
  EC50: > 5.01 µM
Mu-type opioid receptor
  EC50: > 5.01 µM
Cytochrome P450 3A4
  IC50: > 10 µM
Cytochrome P450 2D6
  IC50: 2.51 µM
Liver microsome
  Stability: Stable
[8]
  Kp: 19
